Experimental data reported in PubChem BioAssay (NCI).
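In this assay, cells in 96-well plates receive the compound at five concentrations for 48 hours. Endpoints are linearly interpolated between the surrounding concentrations. The concentration for full growth arrest is given as TGI.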

Legend:
Experiment in all cases: NCI tumour cell line growth inhibition, 48 h
786-0 renal = system: 786-0 renal
A498 renal = system: A498 renal
A549 NSCLC = system: A549 NSCLC
ACHN renal = system: ACHN renal
BT-549 breast = system: BT-549 breast
CAKI-1 renal = system: CAKI-1 renal
CCRF-CEM leukemia = system: CCRF-CEM leukemia
COLO 205 colon = system: COLO 205 colon
DU-145 prostate = system: DU-145 prostate
EKVX NSCLC = system: EKVX NSCLC
HCT-116 colon = system: HCT-116 colon
HCT-15 colon = system: HCT-15 colon
HL-60(TB) leukemia = system: HL-60(TB) leukemia
HOP-62 NSCLC = system: HOP-62 NSCLC
HOP-92 NSCLC = system: HOP-92 NSCLC
HS 578T breast = system: HS 578T breast
HT29 colon = system: HT29 colon
IGROV1 ovarian = system: IGROV1 ovarian
K-562 leukemia = system: K-562 leukemia
KM12 colon = system: KM12 colon
LOX IMVI melanoma = system: LOX IMVI melanoma
M14 melanoma = system: M14 melanoma
MALME-3M melanoma = system: MALME-3M melanoma
MCF7 breast = system: MCF7 breast
MDA-MB-231 breast = system: MDA-MB-231 breast
MDA-MB-435 = system: MDA-MB-435
MDA-N = system: MDA-N
MOLT-4 leukemia = system: MOLT-4 leukemia
NCI-H226 lung = system: NCI-H226 lung
NCI-H23 lung = system: NCI-H23 lung
NCI-H460 lung = system: NCI-H460 lung
NCI-H522 lung = system: NCI-H522 lung
NCI/ADR-RES ovarian = system: NCI/ADR-RES ovarian
OVCAR-3 ovarian = system: OVCAR-3 ovarian
OVCAR-4 ovarian = system: OVCAR-4 ovarian
OVCAR-5 ovarian = system: OVCAR-5 ovarian
OVCAR-8 ovarian = system: OVCAR-8 ovarian
PC-3 prostate = system: PC-3 prostate
RPMI-8226 leukemia = system: RPMI-8226 leukemia
RXF 393 renal = system: RXF 393 renal
SF-268 CNS = system: SF-268 CNS
SF-295 CNS = system: SF-295 CNS
SF-539 CNS = system: SF-539 CNS
SK-MEL-2 melanoma = system: SK-MEL-2 melanoma
SK-MEL-28 melanoma = system: SK-MEL-28 melanoma
SK-MEL-5 melanoma = system: SK-MEL-5 melanoma
SK-OV-3 ovarian = system: SK-OV-3 ovarian
SN12C renal = system: SN12C renal
SNB-19 CNS = system: SNB-19 CNS
SNB-75 CNS = system: SNB-75 CNS
SR leukemia = system: SR leukemia
SW-620 colon = system: SW-620 colon
T-47D breast = system: T-47D breast
TK-10 renal = system: TK-10 renal
U251 CNS = system: U251 CNS
UACC-62 melanoma = system: UACC-62 melanoma
UO-31 renal = system: UO-31 renal
HCC-2998 colon = system: HCC-2998 colon
UACC-257 melanoma = system: UACC-257 melanoma

Measured: TGI

NC(N)=NCCCC(=O)O
not listed: HCC-2998 colon | UACC-257 melanoma
> 100 µM: all other assays above

C=CCC1(c2ccc(OC)cc2)C=CC(=O)CC1 (configuration not stated)
not listed: A498 renal | MALME-3M melanoma | RPMI-8226 leukemia | SK-MEL-2 melanoma
> 100 µM: all other assays above
